Assay: recombinant barcode read abundance after kanamycin selection (control-corrected) (log10(CPM+1)); higher = more efficient recombination; sequences stand for … in AGTGCAGAGAAAATCGGCCAGTTTTCTCTGCCTGCAGTCCGCATGCCGT…AGATTTATGCAGCGGACTGCCTTTCTCCCAAAGTGATAAACCGGACAGTATCATGGACCGGTTTTCCCGGTAATCCGTATTTGCAAGGTTGGTTTCACT; site = the 11-nt target
Experimental: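 Pooled E. coli target-specificity screen for the IS621 bridge recombinase. Each library plasmid pairs an 11-nt target (CT core) with a bridge RNA whose target-binding loop (9-nt LTG + 4-nt RTG) is reprogrammed; the rest of the 177-nt WT IS621 bridge RNA scaffold is fixed. The plasmid is co-electroporated with a WT donor plasmid; recombinase is induced with 0.1 mM IPTG and recombinants are selected on kanamycin. Recombinant barcodes are sequenced, converted to CPM, averaged over two biological replicates and corrected by the unselected control CPM. Molecule = full bridge RNA written as DNA: LTG = specificity nt 1-9, RTG = reverse complement of specificity nt 8-11, in the WT scaffold.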
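Also: IS621 recombinase and bridge RNA in Escherichia coli cells.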

## ACAGGTCCTTGGGTTCTAACCTGTTGCCG (site GTCTAATCTAT)
  recombinant barcode read abundance (log10): 0.12

## ACAGTACCTTGGGTTCTAACCTGTTGCTG (site ACAGTACCTCA)
  recombinant barcode read abundance (log10): 1.87

## ACAGTACCTTGGGTTCTAACCTGTTGCTG (site TAGCCCTCTTT)
  recombinant barcode read abundance (log10): 0.204

## ACAGTTACTTGGGTTCTAACCTGTTGCAT (site ACAGTTACTAT)
  recombinant barcode read abundance (log10): 1.29

## ACAGTTACTTGGGTTCTAACCTGTTGCAT (site TTGTGAGCTTG)
  recombinant barcode read abundance (log10): 0.737

## ACATACCCTTGGGTTCTAACCTGTTGCTG (site ACATACCCTCA)
  recombinant barcode read abundance (log10): 1.81

## ACATACCCTTGGGTTCTAACCTGTTGCTG (site CTTCGAACTAT)
  recombinant barcode read abundance (log10): 0.142

## ACATGGACTTGGGTTCTAACCTGTTGCAT (site ACATGAACTAT)
  recombinant barcode read abundance (log10): 0.753

## ACATGGACTTGGGTTCTAACCTGTTGCAT (site ACATGCACTAT)
  recombinant barcode read abundance (log10): 0.115

## ACATGGACTTGGGTTCTAACCTGTTGCAT (site ACATGGACTAT)
  recombinant barcode read abundance (log10): 2.72

## ACATGGACTTGGGTTCTAACCTGTTGCAT (site ACATGTACTAT)
  recombinant barcode read abundance (log10): 0.157

## ACATGTACTTGGGTTCTAACCTGTTGCAG (site ACATGTACTCT)
  recombinant barcode read abundance (log10): 1.28

## ACATGTACTTGGGTTCTAACCTGTTGCAG (site AGATGTACTCA)
  recombinant barcode read abundance (log10): 0.0852

## ACATGTACTTGGGTTCTAACCTGTTGCAT (site ACATGAACTAT)
  recombinant barcode read abundance (log10): 0.0356

## ACATGTACTTGGGTTCTAACCTGTTGCAT (site ACATGCACTAT)
  recombinant barcode read abundance (log10): 0

## ACATGTACTTGGGTTCTAACCTGTTGCAT (site ACATGGACTAT)
  recombinant barcode read abundance (log10): 0.121

## ACATGTACTTGGGTTCTAACCTGTTGCAT (site ACATGTACTAT)
  recombinant barcode read abundance (log10): 0.888

## ACATGTACTTGGGTTCTAACCTGTTGCCG (site ACATGTACTCA)
  recombinant barcode read abundance (log10): 0.0415

## ACATGTACTTGGGTTCTAACCTGTTGCCG (site ACATGTACTCG)
  recombinant barcode read abundance (log10): 0.158

## ACATGTACTTGGGTTCTAACCTGTTGCTG (site ACATGTACTCA)
  recombinant barcode read abundance (log10): 1.1

## ACATGTACTTGGGTTCTAACCTGTTGCTG (site ACATGTACTCG)
  recombinant barcode read abundance (log10): 0.182

## ACATTGCCTTGGGTTCTAACCTGTTGCCT (site ACATTGCCTAG)
  recombinant barcode read abundance (log10): 0.44

## ACATTGCCTTGGGTTCTAACCTGTTGCCT (site ACCTTGCCTAG)
  recombinant barcode read abundance (log10): 0.0938

## ACATTGCCTTGGGTTCTAACCTGTTGCCT (site ACGTTGCCTAG)
  recombinant barcode read abundance (log10): 0.732

## ACATTGCCTTGGGTTCTAACCTGTTGCCT (site ACTTTGCCTAG)
  recombinant barcode read abundance (log10): 0

## ACCAAGTCTTGGGTTCTAACCTGTTGCGC (site ACCAAGTCTAC)
  recombinant barcode read abundance (log10): 0.251

## ACCAAGTCTTGGGTTCTAACCTGTTGCGC (site ACCAAGTCTGC)
  recombinant barcode read abundance (log10): 1.74

## ACCACAGCTTGGGTTCTAACCTGTTGCCT (site ACCAAAGCTTG)
  recombinant barcode read abundance (log10): 0.16

## ACCACAGCTTGGGTTCTAACCTGTTGCCT (site ACCACAGCTAG)
  recombinant barcode read abundance (log10): 0.283

## ACCAGATCTTGGGTTCTAACCTGTTGCCT (site ACCAGATCTAG)
  recombinant barcode read abundance (log10): 0.846

## ACCAGATCTTGGGTTCTAACCTGTTGCCT (site TCCAGCTCTAG)
  recombinant barcode read abundance (log10): 0.152

## ACCCAGCCTTGGGTTCTAACCTGTTGCAG (site ACCCAGCCTCT)
  recombinant barcode read abundance (log10): 2.27

## ACCCAGCCTTGGGTTCTAACCTGTTGCAG (site TGAGTCTCTTG)
  recombinant barcode read abundance (log10): 0.0203

## ACCCAGCCTTGGGTTCTAACCTGTTGCAT (site ACCCAGCCTAA)
  recombinant barcode read abundance (log10): 1.4

## ACCCAGCCTTGGGTTCTAACCTGTTGCAT (site ACCCAGCCTAC)
  recombinant barcode read abundance (log10): 0.265

## ACCCAGCCTTGGGTTCTAACCTGTTGCAT (site ACCCAGCCTAG)
  recombinant barcode read abundance (log10): 0.68

## ACCCAGCCTTGGGTTCTAACCTGTTGCAT (site ACCCAGCCTAT)
  recombinant barcode read abundance (log10): 2.45

## ACCCAGCCTTGGGTTCTAACCTGTTGCTT (site ACCCAGCCTAA)
  recombinant barcode read abundance (log10): 1.77

## ACCCAGCCTTGGGTTCTAACCTGTTGCTT (site ACCCAGCCTAC)
  recombinant barcode read abundance (log10): 0.278

## ACCCAGCCTTGGGTTCTAACCTGTTGCTT (site ACCCAGCCTAG)
  recombinant barcode read abundance (log10): 0.758

## ACCCAGCCTTGGGTTCTAACCTGTTGCTT (site ACCCAGCCTAT)
  recombinant barcode read abundance (log10): 1.41
